No end group written: not given here.
Tests used:
MDA-MB-468 cells [1] = test: MTT viability, EJ1 in combination with pathway inhibitors or ROS scavenger; assay type: cell-based; conditions: MDA-MB-468, 20 μmol/l EJ1 plus inhibitor
Experimental: (a) MDA-MB-468 cells were treated with either 20 μmol/l CP (A-D) or 20 μmol/l EJ1 (E-H) for 0 minutes (A, E), 15 minutes (B, F), 60 minutes (C, G), or 16 hours (D, H). Arrows indicate membrane blebs and arrowheads indicate intracellular vacuoles. (b) BxPC3 cells were serum starved overnight, then treated with 20 μmol/l EJ1 and 50 ng/ml Texas-Red-labeled EGF, and imaged for 30 minutes with an Olympus IX71 deconvolution microscope. Panels A-F are bright field images, D′-F′ are red channel images (Texas-Red-labeled EGF). Arrowheads indicate locations of EGF accumulation on membrane protrusions. (c) Diagram depicts Ca^2+/CaM-regulated signaling pathway, and inhibitors acting at different targets are indicated. (d) MDA-MB-468 cells were pretreated with 50 μmol/l W-13 (D-F), 10 μmol/l ML-7 (G-I), or 10 μmol/l Y-27632 (J-L) in complete medium at 37° C. for 30 minutes and then treated with vehicle, 20 μmol/l CP, or 20 μmol/l EJ1 in combination with W-13, ML-7, or Y-27632 in complete medium at 37° C. for 15 minutes. Images represent the bright field images. Arrows indicate membrane blebbing. (e) MDA-MB-468 cells were untreated (UNTX) or treated with water (Vehicle), 20 μmol/l EJ1, 10 μmol/l Y-27632, or 10 μmol/l ML-7 alone or EJ1 in combination with Y-27632 or ML-7, and the viability was assessed by the MTT assay. **P<0.01 (Student's t-test). Error bars, mean±SD. (f) MDA-MB-468 cells were either in serum-free medium (SF) or stimulated with 100 ng/ml EGF (EGF) and then incubated with water (Vehicle), 20 μmol/l CP, 20 μmol/l EJ1, 2 μmol/l ionomycin, 50 μmol/l W-13, 100 μmol/l KN-93, or EJ1 in combination with ionomycin for 15 minutes. Lysates were immunoblotted with antibodies as indicated. (g) Stable, neomycin-selected NIH3T3 cell lines were created, expressing either Rac1 wild-type (Rac1-WT) or Rac1 constitutively active mutant (Rac1-Q61L). Cells were treated with water (Vehicle), 20 μmol/l CP, or 20 μmol/l EJ1, and the viability was assessed by MTT. ***P<0.001 (Student's t-test). Error bars, mean±SD.
(a) MDA-MB-468 cells were incubated in serum-free media with 200 nmol/l MitoTracker Red CMXRos and 5 μg/ml Hoechst 33342 nuclear stain, followed by either 20 μmol/l CP (A-B′) or 20 μmol/l EJ1 (C-D′), and imaged at 0 minutes (A, A′; and C, C′) or at 5 minutes (B, B′; and D, D′). (b) MDA-MB-468 cells were incubated with 1 μmol/l JC-1, followed by 20 μmol/l CP, 20 μmol/l EJ1, or 50 μmol/l CCCP. Results were calculated as the ratio of the 514/590 nm to 514/529 nm fluorescences and the ratio for CP-treated sample was set as 1. *P<0.05, Student's t-test. Error bars, mean±SD. […] Cells were then sorted by flow cytometer and analyzed by Cellquest Pro 4.0 software. The results are expressed as the percentage of DCFH fluorescence-positive cells. *P<0.05, Student's t-test. […]

MDA-MB-468 cells [2] = test: Membrane blebbing / cell morphology, bright field imaging; assay type: cell-based; conditions: for inhibition of EJ1-induced membrane blebbing: 50 μmol/l W-13, 10 μmol/l ML-7, 10 μmol/l Y-27632 with 20 μmol/l EJ1
Experimental: (a) MDA-MB-468 cells were treated with either 20 μmol/l CP (A-D) or 20 μmol/l EJ1 (E-H) for 0 minutes (A, E), 15 minutes (B, F), 60 minutes (C, G), or 16 hours (D, H). […] (b) BxPC3 cells were serum starved overnight, then treated with 20 μmol/l EJ1 and 50 ng/ml Texas-Red-labeled EGF, and imaged for 30 minutes with an Olympus IX71 deconvolution microscope. Panels A-F are bright field images, D′-F′ are red channel images (Texas-Red-labeled EGF). […] (c) Diagram depicts Ca^2+/CaM-regulated signaling pathway, and inhibitors acting at different targets are indicated. (d) MDA-MB-468 cells were pretreated with 50 μmol/l W-13 (D-F), 10 μmol/l ML-7 (G-I), or 10 μmol/l Y-27632 (J-L) in complete medium at 37° C. for 30 minutes and then treated with vehicle, 20 μmol/l CP, or 20 μmol/l EJ1 in combination with W-13, ML-7, or Y-27632 in complete medium at 37° C. for 15 minutes. Images represent the bright field images. […] Error bars, mean±SD. (f) MDA-MB-468 cells were either in serum-free medium (SF) or stimulated with 100 ng/ml EGF (EGF) and then incubated with water (Vehicle), 20 μmol/l CP, 20 μmol/l EJ1, 2 μmol/l ionomycin, 50 μmol/l W-13, 100 μmol/l KN-93, or EJ1 in combination with ionomycin for 15 minutes. Lysates were immunoblotted with antibodies as indicated. […] Error bars, mean±SD. (From Hart et al., 2013, Molecular Therapy 21(11):1996-2007, the disclosure of which is incorporated herein in its entirety.)
Ca^2+/CaM signaling regulates many different cellular events, such as membrane dynamics, cell survival, mitochondrial function, and motility. We began by evaluating whether EJ1 was affecting membrane dynamics by treating MDA-MB-468 cells with either CP (FIG. 8) or EJ1 (FIG. 8) and examining cell morphology. […] Ca^2+/CaM signaling regulates many different downstream pathways, such as CaMKII and MLCK. CaMKII regulates cell proliferation, whereas MLCK phosphorylates myosin light chain (MLC) and regulates actinomyosin reorganization during membrane blebbing (as depicted in FIG. 8). To investigate whether EJ1-induced membrane blebbing was through the MLCK pathway, MDA-MB-468 cells were treated with vehicle, CP, or EJ1 alone (A-C) or in combination with the CaM inhibitor W-13 or the MLC phosphorylation inhibitors ML-7 and Y-27632 (D-L).

MDA-MB-468 cells [3] = conditions: for inhibitor effect on cell survival after three days of treatment: MDA-MB-468, 20 uM peptide (FIG. 1); for effect on cell viability (MTT): MDA-MB-468, 3 days of treatment (FIG. 6)
Experimental: Inhibitor peptides were evaluated on their ability to inhibit growth of triple-negative breast cancer cells MDA-MB-468 (20 uM peptide treatment). […] SEQ ID NO: 13 is […] SEQ ID NO: 14 is […] SEQ ID NO: 15 is […] SEQ ID NO: 16 is […] SEQ ID NO: 17 is […] SEQ ID NO: 18 is […] SEQ ID NO: 19 is […] SEQ ID NO: 20 is […] SEQ ID NO: 21 is […] SEQ ID NO: 22 is […] SEQ ID NO: 23 is […] SEQ ID NO: 24 is […] SEQ ID NO: 25 is […]
Peptide designations are indicated in the right column. Changes from EJ1 in EJ2-11 are denoted in the second column from the right. (d-j) Cell lines were treated daily with 20 μmol/l EJ1, 20 μmol/l CP, or vehicle (water) for 3 days unless otherwise noted, and cell viability was determined by the MTT assay. Growth rates for vehicle-treated cells were set to 100%, and CP and EJ1 rates were adjusted accordingly. *P<0.05, **P<0.01, ***P<0.001 (Student's t-test). Error bars, mean±SD. (From Hart et al., 2013, Molecular Therapy 21(11):1996-2007, the disclosure of which is incorporated herein in its entirety.)
To do this, we created cell-penetrating peptides to act as dominant-negative “decoys,” thereby inhibiting endogenous jxm interactions. Peptides specific for jxm subdomains were synthesized downstream of the protein transduction domain-4 (PTD4; FIG. 6). Next, the effect of peptide treatment on cell viability was analyzed on the breast cancer cell line MDA-MB-468 by MTT (3-[4,5-dimethylthiazol-2-yl]-2,5-diphenyl tetra-zolium bromide) analysis after 3 days of treatment.
Protein lysate preparation, immunoprecipitation, and western blotting were performed as described previously. For cross-linking, cells were first incubated according to manufacturer instructions with 3 μmol/l DMS, a membrane-permeable, noncleavable, cross-linking agent (Thermo Scientific, Waltham, Mass.). Cells were analyzed both by the MTT assay following manufacturer's instructions (Sigma) and using a U-Quant Spectrophotometer (Bio-TEK Instruments, Winooski, Vt.).

[4] = tested on: patient-derived glioma lines (BT145, BT147, GB16, GB7, GB42); test: Viability of patient-derived GBM cells; assay type: cell-based
Text: FIG. 13A and FIG. 13B show treatment of patient-derived GBM cells with various EGFR inhibitor peptides.
EGFR is amplified or mutated in more than 40% of glioblastoma multiforme (GBM) tumors. Referring to FIG. 13-14, inhibitor peptides of the present invention were used to treat GBM cells and tumors.

## Cn1cnc(=N)c2[nH]cnc21 [3-MA]
MDA-MB-468 cells [1]
  effect of co-treatment on EJ1-induced loss of cell viability (MTT): not able to rescue

## COc1cc2ncnc(Nc3cccc(Cl)c3)c2cc1OC [AG1478]
MDA-MB-468 cells [2]; EJ1 20 μmol/l, 15 minutes
  membrane blebbing: No membrane blebbing was observed

## O=S(=O)(c1cccc2c(I)cccc12)N1CCCNCC1 [ML-7]
MDA-MB-468 cells [1]
  effect of co-treatment on EJ1-induced loss of cell viability (MTT): significantly reduce the effects of EJ1
MDA-MB-468 cells [2]
  inhibition of EJ1-induced membrane blebbing: completely inhibited

## NCCCCNS(=O)(=O)c1ccc2c(Cl)cccc2c1 [W-13]
MDA-MB-468 cells [2]
  inhibition of EJ1-induced membrane blebbing: completely inhibited

## C[C@@H](N)[C@H]1CC[C@H](C(=O)Nc2ccncc2)CC1 [Y-27632]
MDA-MB-468 cells [1]
  effect of co-treatment on EJ1-induced loss of cell viability (MTT): significantly reduce the effects of EJ1
MDA-MB-468 cells [2]
  inhibition of EJ1-induced membrane blebbing: completely inhibited

## YARAAARQARAFMRDRHIVRDRTLRDLLQERE (Artificial peptide sequence related to EGFR juxtamembrane sequence) [EJ10]
MDA-MB-468 cells [3]
  inhibitor effect on cell survival after three days of treatment: almost no inhibitor effect
  effect on cell viability (MTT): completely ablated the effects on viability

## YARAAARQARAFMRQRHIVRQRTLRQLLQERE [EJ11]
MDA-MB-468 cells [3]
  effect on cell viability (MTT): only marginally blocked the antiproliferative effects of EJ1

## YARAAARQARAFMRRRHIVRKRTL (Artificial peptide sequence related to EGFR juxtamembrane sequence) [EJ2]
MDA-MB-468 cells [3]
  effect on cell viability (MTT): partial reduction

## YARAAARQARAIVRKRTLRRLLQERE (Artificial peptide sequence related to EGFR juxtamembrane sequence) [EJ3]
MDA-MB-468 cells [3]
  effect on cell viability (MTT): partial reduction

## YARAAARQARALLQERELVEPLT (Artificial peptide sequence related to EGFR juxtamembrane sequence) [EJ6]
MDA-MB-468 cells [3]
  effect on cell viability (MTT): No antiproliferative effect

## YARAAARQARARDRHIVRDRTLRD (Artificial peptide sequence related to EGFR juxtamembrane sequence) [nlsCPv4]
MDA-MB-468 cells [3]
  inhibitor effect on cell survival after three days of treatment: almost no inhibitor effect

## YARAAARQARARRRHIVRKRTLRR (Artificial peptide sequence related to EGFR juxtamembrane sequence) [EJ4]
MDA-MB-468 cells [3]
  effect on cell viability (MTT): No antiproliferative effect

## YARAAARQARARTLRRLLQERE (Artificial peptide sequence related to EGFR juxtamembrane sequence) [EJ5]
MDA-MB-468 cells [3]
  effect on cell viability (MTT): partial reduction

## control peptide: control peptide compared to stapled EJ1 on patient-derived glioma lines (YARAAARQARAFMRDRHIVRDRTLRDLLQERE; Artificial peptide sequence related to EGFR juxtamembrane sequence) [reference compound]
[4]; BT145 and BT147 (FIG. 13A)
  cell viability of patient-derived glioma lines: no effect on cell viability
[4]; GB16, GB7, GB42 and BT147, 24 hr treatment (FIG. 13B)
  cell viability of patient-derived glioma lines: no effect on cell viability

From US10066004B2 (ARIZONA CANCER THERAPEUTICS, LLC, priority 2010, dated 2018)
